Laboratory results as given in ChEMBL document CHEMBL1201862, “PubChem BioAssay data set” (2004).
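Dose response: 5 concentrations. Exposure: 48 h. Format: 96-well plates. Endpoint: linear interpolation; highest concentration if not reached. GI50 = concentration required for 50% inhibition of growth.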 Active and inactive are the calls of the source. Rule as the data show it: active = GI50 up to about 1.1 µM and inactive = higher.

Experiments:
Test in all cases: growth of human tumour cells (NCI), 48 h
UO-31 = tested on: UO-31
PC-3 = tested on: PC-3
UACC-257 = tested on: UACC-257
SK-MEL-28 = tested on: SK-MEL-28
M14 = tested on: M14
HCC 2998 = tested on: HCC 2998
SK-OV-3 = tested on: SK-OV-3
LOX IMVI = tested on: LOX IMVI
NCI-H23 = tested on: NCI-H23
CCRF-CEM = tested on: CCRF-CEM
HL-60 = tested on: HL-60
NCI-H460 = tested on: NCI-H460
KM12 = tested on: KM12
OVCAR-8 = tested on: OVCAR-8
SF-539 = tested on: SF-539
CAKI-1 = tested on: CAKI-1
IGROV-1 = tested on: IGROV-1
UACC-62 = tested on: UACC-62
BT-549 = tested on: BT-549

Measured: GI50

COC(=O)[C@@H]1CN(C(=O)CCc2ccccc2)C(=O)N1
inactive: UO-31 50.2 µM | PC-3 > 100 µM | UACC-257 > 100 µM | SK-MEL-28 > 100 µM | M14 > 100 µM | HCC 2998 > 100 µM | SK-OV-3 > 100 µM | LOX IMVI > 100 µM | NCI-H23 > 100 µM | CCRF-CEM > 100 µM | HL-60 > 100 µM | NCI-H460 86.1 µM | KM12 > 100 µM | OVCAR-8 > 100 µM | SF-539 > 100 µM | CAKI-1 > 100 µM | IGROV-1 > 100 µM

COC1CC(OC(=O)c2ccccc2)C(OC(=O)c2ccccc2)C(C)O1 (configuration not stated)
inactive: UO-31 > 100 µM | PC-3 > 100 µM | UACC-257 > 100 µM | SK-MEL-28 > 100 µM | M14 > 100 µM | HCC 2998 > 100 µM | SK-OV-3 > 100 µM | LOX IMVI > 100 µM | UACC-62 > 100 µM | NCI-H23 > 100 µM | CCRF-CEM > 100 µM | HL-60 > 100 µM | NCI-H460 > 100 µM | KM12 > 100 µM | OVCAR-8 > 100 µM | SF-539 > 100 µM | CAKI-1 > 100 µM | IGROV-1 > 100 µM

CNC(=S)N1CCN(C(C)=O)C1=S
inactive: UO-31 50.7 µM | UACC-257 70.6 µM | SK-MEL-28 29.2 µM | M14 42.4 µM | HCC 2998 31.9 µM | SK-OV-3 66.8 µM | LOX IMVI 76.7 µM | UACC-62 43.7 µM | NCI-H23 27.7 µM | CCRF-CEM 46.5 µM | BT-549 12.9 µM | HL-60 47.8 µM | NCI-H460 87.9 µM | KM12 56.9 µM | OVCAR-8 92.5 µM | SF-539 20.4 µM | CAKI-1 50 µM | IGROV-1 44.9 µM

CC1=C2CCCC2C/C(=N/Nc2ccc([N+](=O)[O-])cc2[N+](=O)[O-])CC1 (configuration not stated)
inactive: UO-31 > 100 µM | UACC-257 > 100 µM | SK-MEL-28 > 100 µM | M14 > 100 µM | HCC 2998 > 100 µM | SK-OV-3 > 100 µM | LOX IMVI > 100 µM | UACC-62 > 100 µM | NCI-H23 > 100 µM | HL-60 11.1 µM | NCI-H460 > 100 µM | KM12 > 100 µM | OVCAR-8 > 100 µM | SF-539 > 100 µM | CAKI-1 > 100 µM | IGROV-1 > 100 µM

O=C1c2ccccc2NC(=O)C2C1C(c1ccccc1)CC2(O)c1ccccc1 (configuration not stated)
inactive: PC-3 18 µM | UACC-257 79.4 µM | SK-MEL-28 > 100 µM | M14 60.5 µM | HCC 2998 67 µM | SK-OV-3 > 100 µM | LOX IMVI 43.2 µM | UACC-62 > 100 µM | NCI-H23 62.7 µM | CCRF-CEM 27.7 µM | HL-60 53.1 µM | NCI-H460 34.7 µM | KM12 48 µM | OVCAR-8 > 100 µM | SF-539 > 100 µM | CAKI-1 78 µM | IGROV-1 52.4 µM

C=CCn1c(=O)c2ccccc2[n+]2c(-c3cccc([N+](=O)[O-])c3)csc12
inactive: UO-31 28.6 µM | PC-3 30.9 µM | UACC-257 36.3 µM | SK-MEL-28 66.7 µM | M14 62.7 µM | HCC 2998 > 100 µM | SK-OV-3 68.1 µM | LOX IMVI 56.8 µM | UACC-62 31.6 µM | NCI-H23 54.5 µM | CCRF-CEM 27.5 µM | HL-60 25.9 µM | NCI-H460 42.1 µM | KM12 45.4 µM | OVCAR-8 34.8 µM | SF-539 96.8 µM | CAKI-1 97.3 µM | IGROV-1 50.5 µM

O=P1(Oc2ccccc2)N=P(c2ccccc2)(c2ccccc2)C=C(c2ccc(Cl)cc2)N1 (configuration not stated)
inactive: UO-31 12 µM | PC-3 6.58 µM | UACC-257 15.4 µM | M14 7.67 µM | SK-OV-3 13.2 µM | UACC-62 13.9 µM | NCI-H23 15.3 µM | CCRF-CEM 9.38 µM | BT-549 16 µM | HL-60 4.86 µM | NCI-H460 5.14 µM | KM12 10.3 µM | OVCAR-8 14.4 µM | SF-539 15.3 µM | CAKI-1 9.66 µM | IGROV-1 12.2 µM

C=CC[C@@H]1C=C[C@@H](C(=O)OC)n2c(=O)n(-c3ccccc3)c(=O)n21
inactive: UO-31 > 100 µM | UACC-257 > 100 µM | SK-MEL-28 > 100 µM | M14 > 100 µM | HCC 2998 > 100 µM | SK-OV-3 > 100 µM | LOX IMVI > 100 µM | UACC-62 > 100 µM | NCI-H23 > 100 µM | CCRF-CEM > 100 µM | BT-549 > 100 µM | KM12 > 100 µM | OVCAR-8 > 100 µM | SF-539 > 100 µM | CAKI-1 > 100 µM | IGROV-1 > 100 µM

CC(=O)Oc1cc(S(=O)(=O)Nc2n[nH]c(Nc3ccc(C)cc3)n2)c(S)cc1Cl
inactive: UO-31 > 100 µM | PC-3 > 100 µM | UACC-257 > 100 µM | SK-MEL-28 > 100 µM | M14 > 100 µM | LOX IMVI > 100 µM | UACC-62 > 100 µM | NCI-H23 > 100 µM | CCRF-CEM 94.8 µM | BT-549 > 100 µM | HL-60 45.7 µM | NCI-H460 > 100 µM | KM12 > 100 µM | OVCAR-8 > 100 µM | SF-539 > 100 µM | CAKI-1 > 100 µM | IGROV-1 > 100 µM

O=C(CCN1CCOCC1)Nc1ccc(F)cc1F
inactive: UO-31 > 100 µM | PC-3 > 100 µM | UACC-257 > 100 µM | SK-MEL-28 > 100 µM | M14 > 100 µM | SK-OV-3 > 100 µM | LOX IMVI > 100 µM | UACC-62 > 100 µM | NCI-H23 > 100 µM | BT-549 > 100 µM | HL-60 > 100 µM | NCI-H460 > 100 µM | KM12 > 100 µM | OVCAR-8 > 100 µM | SF-539 > 100 µM | CAKI-1 > 100 µM | IGROV-1 > 100 µM

CC(=O)Nc1ccc(N2C(=O)/C(=C\c3cccc(Oc4ccccc4)c3)SC2c2ccccc2)cc1 (configuration not stated)
inactive: UO-31 82.6 µM | UACC-257 35 µM | SK-MEL-28 27.4 µM | M14 32.3 µM | HCC 2998 > 100 µM | SK-OV-3 16.1 µM | LOX IMVI 17.2 µM | UACC-62 22.4 µM | NCI-H23 26.1 µM | CCRF-CEM 17.3 µM | BT-549 33.3 µM | HL-60 25.4 µM | NCI-H460 50.7 µM | KM12 24.4 µM | OVCAR-8 17.1 µM | SF-539 19.3 µM | CAKI-1 66.4 µM

C[n+]1c(-c2ccc(/C=N/NC(=N)N/N=C/c3ccc(-c4cn5cc(Cl)ccc5[n+]4C)cc3)cc2)cn2cc(Cl)ccc21
inactive: UO-31 69.8 µM | PC-3 > 100 µM | UACC-257 > 100 µM | SK-MEL-28 > 100 µM | M14 > 100 µM | HCC 2998 > 100 µM | SK-OV-3 > 100 µM | CCRF-CEM > 100 µM | HL-60 > 100 µM | NCI-H460 > 100 µM | KM12 > 100 µM | OVCAR-8 > 100 µM | SF-539 > 100 µM | IGROV-1 > 100 µM

CCOC(=O)Cc1nc2nn(Cc3ccccc3)cc2c(=O)[nH]1
inactive: UO-31 > 100 µM | UACC-257 > 100 µM | SK-MEL-28 > 100 µM | HCC 2998 > 100 µM | SK-OV-3 > 100 µM | LOX IMVI > 100 µM | UACC-62 > 100 µM | NCI-H23 > 100 µM | CCRF-CEM > 100 µM | BT-549 > 100 µM | HL-60 > 100 µM | NCI-H460 > 100 µM | KM12 > 100 µM | OVCAR-8 > 100 µM | SF-539 > 100 µM | CAKI-1 > 100 µM | IGROV-1 > 100 µM

CN(C(=O)Nc1ccc(Cl)c(Cl)c1)C1CCCC[C@@H]1N1CCCC1 (some centres not stated)
inactive: UO-31 19.3 µM | PC-3 41.4 µM | UACC-257 18.8 µM | SK-MEL-28 21.7 µM | M14 19.1 µM | SK-OV-3 > 100 µM | LOX IMVI 30.3 µM | UACC-62 22.9 µM | NCI-H23 > 100 µM | CCRF-CEM 30.5 µM | BT-549 22.4 µM | NCI-H460 36.6 µM | KM12 39.5 µM | OVCAR-8 79.3 µM | CAKI-1 70.6 µM | IGROV-1 41.3 µM

C=CCN1C[C@@H](C)N([C@@H](c2ccc(C(=O)N(CC)CC)cc2)c2cccc(OC)c2)C[C@@H]1C
inactive: UO-31 > 100 µM | PC-3 > 100 µM | SK-MEL-28 > 100 µM | M14 > 100 µM | SK-OV-3 > 100 µM | LOX IMVI > 100 µM | UACC-62 > 100 µM | NCI-H23 > 100 µM | CCRF-CEM 3.7 µM | BT-549 > 100 µM | KM12 > 100 µM | OVCAR-8 > 100 µM | SF-539 > 100 µM | CAKI-1 > 100 µM | IGROV-1 > 100 µM

O=C1N=C(S)NNC12c1ccccc1-c1ccccc12
inactive: UO-31 4.81 µM | UACC-257 > 10 µM | SK-MEL-28 > 10 µM | M14 > 10 µM | HCC 2998 > 10 µM | SK-OV-3 > 10 µM | LOX IMVI > 10 µM | UACC-62 > 10 µM | NCI-H23 > 10 µM | CCRF-CEM > 10 µM | BT-549 > 10 µM | HL-60 > 10 µM | NCI-H460 5.42 µM | KM12 > 10 µM | OVCAR-8 > 10 µM | SF-539 > 10 µM | CAKI-1 > 10 µM | IGROV-1 > 10 µM
